Results from patent publication US9505728B2, “Triazolone compounds and uses thereof” (INCEPTION 2, INC., priority 2012, dated 2016).
Where two headings read alike, the source gives them in different places.

Assays:
Format in all cases: cell-based
Human PPARα = target: T1, Human PPARα (Homo sapiens, UniProt Q07869); experiment: Human PPARα Reporter Assay (luciferase)
T1 construct: host or cells: proprietary non-human mammalian cells
T1 sequence (Q07869 1-468): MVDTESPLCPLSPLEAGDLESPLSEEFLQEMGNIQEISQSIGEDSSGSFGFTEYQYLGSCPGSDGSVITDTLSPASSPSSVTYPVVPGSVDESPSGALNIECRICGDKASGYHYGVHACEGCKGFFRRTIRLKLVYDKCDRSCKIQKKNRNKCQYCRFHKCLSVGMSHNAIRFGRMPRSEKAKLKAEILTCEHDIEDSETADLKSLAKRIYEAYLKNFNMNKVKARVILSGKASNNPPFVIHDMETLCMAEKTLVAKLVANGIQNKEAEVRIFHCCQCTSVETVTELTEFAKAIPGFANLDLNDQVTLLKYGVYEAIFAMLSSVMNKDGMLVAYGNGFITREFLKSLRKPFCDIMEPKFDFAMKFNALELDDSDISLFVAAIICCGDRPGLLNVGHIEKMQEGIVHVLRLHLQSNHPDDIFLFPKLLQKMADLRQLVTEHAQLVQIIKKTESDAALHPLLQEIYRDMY
In short: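 Non-human mammalian cells constitutively expressing human PPARα with a PPARα-responsive luciferase reporter were dosed with compounds right after plating. After overnight incubation, media removed and detection reagent added; luminescence taken as proportional to PPARα activation, agonist or antagonist mode.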

PPAR beta/delta = target: T2, PPAR beta/delta (Homo sapiens, UniProt Q03181); experiment: Target selectivity counterscreen, PPAR β/δ reporter assay; conditions: receptor agonist at ~EC80
T2 construct: host or cells: engineered reporter cells of the kit
T2 sequence (Q03181 1-441): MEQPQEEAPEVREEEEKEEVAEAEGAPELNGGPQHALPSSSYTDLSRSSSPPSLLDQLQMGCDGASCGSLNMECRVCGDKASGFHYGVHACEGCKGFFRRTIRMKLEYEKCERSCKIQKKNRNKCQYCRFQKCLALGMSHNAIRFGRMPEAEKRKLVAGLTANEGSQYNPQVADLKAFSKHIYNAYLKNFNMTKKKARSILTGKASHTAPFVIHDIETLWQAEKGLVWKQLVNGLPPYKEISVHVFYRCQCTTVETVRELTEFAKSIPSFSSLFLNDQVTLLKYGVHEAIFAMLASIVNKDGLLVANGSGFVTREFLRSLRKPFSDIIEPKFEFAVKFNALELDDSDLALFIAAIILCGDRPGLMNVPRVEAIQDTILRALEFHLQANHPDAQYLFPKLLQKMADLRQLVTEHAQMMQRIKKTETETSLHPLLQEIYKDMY
Method: (§1) Target Selectivity Assays
(§2) To determine species selectivity, a Mouse PPARα Reporter Assay System was used (Indigo Biosciences, Cat. #M00111). Activity of test compounds to antagonize or agonize other isoforms of human PPAR, for example β/δ and γ, were assessed using the corresponding kits from Indigo Biosciences (Cat. #IB00121 and #IB00101, respectively). In addition to PPAR activity, compounds were also screened for activity against other nuclear hormone receptors including Estrogen Receptor β, Glucocorticoid Receptor and Thyroid Receptor β using commercially available kits (Indigo Biosciences, Cat. #IB00411, IB00201 and IB01101, respectively). Each assay system from Indigo Biosciences uses technology analogous to the human PPARα kit, with the variance being that the cells used for each assay were engineered to over-express the receptor of interest. In addition, the appropriate receptor agonist (included with each kit) was used at ˜EC80 for assays in which antagonist potency was being assessed.

PPAR gamma = target: T3, PPAR gamma (Homo sapiens, UniProt P37231); experiment: Target selectivity counterscreen, PPAR γ reporter assay; conditions: receptor agonist at ~EC80
T3 construct: host or cells: engineered reporter cells of the kit
T3 sequence (P37231 1-505): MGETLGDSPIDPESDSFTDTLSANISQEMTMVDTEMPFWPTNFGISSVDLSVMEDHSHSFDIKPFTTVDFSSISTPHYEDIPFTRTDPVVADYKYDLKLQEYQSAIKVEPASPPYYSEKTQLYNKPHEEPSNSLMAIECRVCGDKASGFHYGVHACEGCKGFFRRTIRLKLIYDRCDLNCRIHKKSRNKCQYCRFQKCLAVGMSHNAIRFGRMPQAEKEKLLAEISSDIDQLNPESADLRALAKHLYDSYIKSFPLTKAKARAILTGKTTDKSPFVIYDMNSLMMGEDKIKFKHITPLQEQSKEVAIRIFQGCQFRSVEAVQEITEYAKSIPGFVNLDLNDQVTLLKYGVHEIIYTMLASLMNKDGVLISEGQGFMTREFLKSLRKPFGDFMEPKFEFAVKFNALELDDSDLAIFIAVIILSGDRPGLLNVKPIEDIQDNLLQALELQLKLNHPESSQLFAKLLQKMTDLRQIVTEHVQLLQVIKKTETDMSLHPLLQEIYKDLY
Method: as §1, §2

Thyroid Receptor β = target: T4, Thyroid Receptor β (Homo sapiens, UniProt P10828); experiment: Target selectivity counterscreen, Thyroid Receptor β reporter assay; conditions: receptor agonist at ~EC80
T4 construct: host or cells: engineered reporter cells of the kit
T4 sequence (P10828 1-461): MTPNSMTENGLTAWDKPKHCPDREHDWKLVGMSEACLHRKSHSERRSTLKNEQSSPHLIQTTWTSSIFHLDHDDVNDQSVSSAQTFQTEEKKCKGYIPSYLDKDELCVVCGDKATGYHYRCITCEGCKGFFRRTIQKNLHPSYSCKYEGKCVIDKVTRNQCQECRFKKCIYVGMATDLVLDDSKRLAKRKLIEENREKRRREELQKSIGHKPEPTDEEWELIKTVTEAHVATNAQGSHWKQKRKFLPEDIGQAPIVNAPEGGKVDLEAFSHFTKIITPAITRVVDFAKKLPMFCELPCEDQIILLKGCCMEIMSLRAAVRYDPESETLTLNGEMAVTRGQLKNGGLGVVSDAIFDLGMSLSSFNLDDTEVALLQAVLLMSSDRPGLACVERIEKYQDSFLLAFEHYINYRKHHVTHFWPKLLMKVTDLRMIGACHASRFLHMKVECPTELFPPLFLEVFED
Method: as §1, §2

Glucocorticoid Receptor = target: T5, Glucocorticoid Receptor (Homo sapiens, UniProt P04150); experiment: Target selectivity counterscreen, Glucocorticoid Receptor reporter assay; conditions: receptor agonist at ~EC80
T5 construct: host or cells: engineered reporter cells of the kit
T5 sequence (P04150 1-777): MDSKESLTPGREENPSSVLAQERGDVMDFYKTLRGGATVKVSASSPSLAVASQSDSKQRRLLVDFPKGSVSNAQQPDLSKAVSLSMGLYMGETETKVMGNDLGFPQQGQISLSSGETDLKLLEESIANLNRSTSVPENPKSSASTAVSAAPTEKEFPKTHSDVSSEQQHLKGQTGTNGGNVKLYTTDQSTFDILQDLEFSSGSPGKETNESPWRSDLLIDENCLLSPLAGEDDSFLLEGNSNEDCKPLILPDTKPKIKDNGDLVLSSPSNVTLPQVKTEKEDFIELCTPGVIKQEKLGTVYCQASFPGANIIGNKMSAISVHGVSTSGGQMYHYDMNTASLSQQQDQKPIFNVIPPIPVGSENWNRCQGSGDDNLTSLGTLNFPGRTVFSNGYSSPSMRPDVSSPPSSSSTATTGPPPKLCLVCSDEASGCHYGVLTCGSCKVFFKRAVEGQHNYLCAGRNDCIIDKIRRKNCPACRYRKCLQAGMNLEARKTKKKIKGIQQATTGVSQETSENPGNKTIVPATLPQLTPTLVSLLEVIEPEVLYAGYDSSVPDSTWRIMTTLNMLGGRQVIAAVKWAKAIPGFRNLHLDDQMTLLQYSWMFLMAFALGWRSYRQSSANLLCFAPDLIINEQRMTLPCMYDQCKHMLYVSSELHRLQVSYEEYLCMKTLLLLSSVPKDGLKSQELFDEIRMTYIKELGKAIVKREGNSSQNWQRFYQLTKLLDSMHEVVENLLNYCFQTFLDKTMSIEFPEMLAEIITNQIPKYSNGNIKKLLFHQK
Method: as §1, §2

Estrogen Receptor β = target: T6, Estrogen Receptor β (Homo sapiens, UniProt Q92731); experiment: Target selectivity counterscreen, Estrogen Receptor β reporter assay; conditions: receptor agonist at ~EC80
T6 construct: host or cells: engineered reporter cells of the kit
Method: as §1, §2

[1] = human PPARα reporter cells, overnight incubation, antagonism, read-out: Luciferase IC50

T6 sequence (Q92731 whole entry): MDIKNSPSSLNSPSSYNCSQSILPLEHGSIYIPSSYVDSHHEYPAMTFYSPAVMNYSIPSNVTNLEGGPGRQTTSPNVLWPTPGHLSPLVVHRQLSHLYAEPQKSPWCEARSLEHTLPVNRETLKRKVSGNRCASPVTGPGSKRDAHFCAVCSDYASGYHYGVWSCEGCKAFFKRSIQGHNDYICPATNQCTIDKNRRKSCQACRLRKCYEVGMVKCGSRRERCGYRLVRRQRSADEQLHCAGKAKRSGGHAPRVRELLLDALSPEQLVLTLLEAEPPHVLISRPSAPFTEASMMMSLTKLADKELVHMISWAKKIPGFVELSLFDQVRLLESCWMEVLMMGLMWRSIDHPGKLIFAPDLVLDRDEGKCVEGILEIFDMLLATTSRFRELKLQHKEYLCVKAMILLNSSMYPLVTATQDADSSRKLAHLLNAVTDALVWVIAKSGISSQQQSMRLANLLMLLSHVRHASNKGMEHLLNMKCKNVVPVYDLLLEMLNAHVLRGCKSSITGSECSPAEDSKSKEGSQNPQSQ

Structure (SMILES)	IC50 (Human PPARα; [1]) [nM]	other results
CCn1c(CCCc2ccc(-c3cccc(CC(=O)O)c3)cc2)nn(Cc2ccccc2)c1=O [Example 23, 2-(4′-(3-(1-Benzyl-4-ethyl-5-oxo-4,5-dihydro-1H-1,2,4-triazol-3-yl)propyl)-[1,1′-biphenyl]-3-yl)acetic acid]	7310	IC50 (Human PPARα; counterscreen table, antagonist potency, read-out: PPAR alpha IC50): 25 nM; IC50 (PPAR beta/delta): > 50000 nM; IC50 (PPAR gamma): > 50000 nM; IC50 (Thyroid Receptor β): > 10000 nM; IC50 (Glucocorticoid Receptor): > 10000 nM; IC50 (Estrogen Receptor β): 17500 nM
CCn1c(CCCc2ccc(-c3cccc(NS(=O)(=O)c4ccc(OC)cc4)n3)cc2)nn(Cc2ccc(C(C)(C)C)cc2)c1=O [Example 84, 1-{[4-(tert-Butyl)phenyl]methyl}-4-ethyl-3-{3-[4-(6-{[(4-methoxyphenyl)sulfonyl]amino}(2-pyridyl))phenyl]propyl}-1,2,4-triazolin-5-one]	208	–
CCn1c(CCCc2ccc(-c3ccc(C(O)C(=O)NC4CC4)cc3)cc2)nn(Cc2ccc(C(C)(C)C)cc2)c1=O (stereo not shown) [Example 51, 2-(4′-(3-(1-(4-(tert-Butyl)benzyl)-4-ethyl-5-oxo-4,5-dihydro-1H-1,2,4-triazol-3-yl)propyl)-[1,1′-biphenyl]-4-yl)-N-cyclopropyl-2-hydroxyacetamide]	292	–
CCOc1ccc(-c2ccc(CCCc3nn(Cc4ccc(C(C)(C)C)cc4)c(=O)n3CC)cc2)cc1C1(C(=O)O)CC1 [Example 122, 1-(4′-(3-(1-(4-(tert-Butyl)benzyl)-4-ethyl-5-oxo-4,5-dihydro-1H-1,2,4-triazol-3-yl)propyl)-4-ethoxy-[1,1′-biphenyl]-3-yl)cyclopropanecarboxylic acid]	188	–
CCn1c(CCCc2ccc(-c3cccc(CC(=O)O)c3F)cc2)nn(Cc2ccc(C(C)(C)C)cc2)c1=O [Example 18, 2-(4′-(3-(1-(4-(tert-Butyl)benzyl)-4-ethyl-5-oxo-4,5-dihydro-1H-1,2,4-triazol-3-yl)propyl)-2-fluoro-[1,1′-biphenyl]-3-yl)acetic acid]	1420	–
CCn1c(CCCc2ccc(-c3nccc(NS(=O)(=O)c4ccccc4)n3)cc2)nn(Cc2ccc(C(C)(C)C)cc2)c1=O [Example 81, N-(2-(4-(3-(1-(4-(tert-Butyl)benzyl)-4-ethyl-5-oxo-4,5-dihydro-1H-1,2,4-triazol-3-yl)propyl)phenyl)pyrimidin-4-yl)benzenesulfonamide]	127	–
CCn1c(CCCc2ccc(-c3ccc(OC(F)F)c(C(=O)O)c3)cc2)nn(Cc2ccc(C(C)(C)C)cc2)c1=O [Example 121, 4′-(3-(1-(4-(tert-Butyl)benzyl)-4-ethyl-5-oxo-4,5-dihydro-1H-1,2,4-triazol-3-yl)propyl)-4-(difluoromethoxy)-[1,1′-biphenyl]-3-carboxylic acid]	39	–

Now from value to molecule, other results behind:

IC50 (Human PPARα; [1]) [nM]	Structure (SMILES)	other results
272	CCn1c(CCCc2ccc(-c3ccc(OC)c([C@H](C)C(=O)O)c3)cc2)nn(Cc2ccc(C(C)(C)C)cc2)c1=O [Example 142, (S)-2-(4′-(3-(1-(4-(tert-Butyl)benzyl)-4-ethyl-5-oxo-4,5-dihydro-1H-1,2,4-triazol-3-yl)propyl)-4-methoxy-[1,1′-biphenyl]-3-yl)propanoic acid]	–
947	CCn1c(CCCc2ccc(-c3cccc(NC(=O)Nc4ccccc4)n3)cc2)nn(Cc2ccc(C(C)(C)C)cc2)c1=O [Example 153, 1-(6-(4-(3-(1-(4-(tert-Butyl)benzyl)-4-ethyl-5-oxo-4,5-dihydro-1H-1,2,4-triazol-3-yl)propyl)phenyl)pyridin-2-yl)-3-phenylurea]	–
9	CCCOc1ccc(-c2ccc(CCCc3nn(Cc4ccc(C(C)(C)C)cc4)c(=O)n3CC)cc2)cc1C(=O)O [Example 168, 4′-(3-(1-(4-(tert-Butyl)benzyl)-4-ethyl-5-oxo-4,5-dihydro-1H-1,2,4-triazol-3-yl)propyl)-4-propoxy-[1,1′-biphenyl]-3-carboxylic acid]	–
